The source of these data is ChEMBL document CHEMBL2401653, “Synthesis, structure-property relationships and pharmacokinetic evaluation of ethyl 6-aminonicotinate sulfonylureas as antagonists of the P2Y₁₂ receptor” (Eur J Med Chem, 2013).

pIC50: −log10 of the molar value. Values after ≈ are worked out from the molar mass of the structure shown.

Data set [1] can be described thus: Stability of the compound in MeCN assessed as compound remaining at 5 degC after 4 months. Format: physicochemical. To be noted: read-out: Stability.
Data set [2] deals with T1, P2Y purinoceptor 12 (Homo sapiens, UniProt Q9H244).
The subject of data set [3] is Liver microsomes. The experiment in a line: Metabolic stability in human liver microsomes at 1 umol/L by LC/MS analysis in absence of NADPH. The class given is ADME, Microsome. To be noted: 1 µM. (Microsomes from liver hold many membrane-bound enzymes, among them those of drug oxidation.)
Data set [4] can be described thus: 1-octanol-phosphate buffer distribution coefficient, log D of the compound at pH 7.4 after 2 days by shake flask method. Format: physicochemical.
Data set [5] relates to Liver microsomes. The experiment in a line: Metabolic stability in rat liver microsomes at 1 umol/L by LC/MS analysis in absence of NADPH. To be noted: 1 µM. The class given is ADME, Microsome.
Data set [6] can be described thus: Apparent Permeability across apical to basolateral side in human Caco2 cells at 1 to 10 uM measured at 30 to 90 mins by LC/MS analysis. The class given is ADME, cell-based. Particulars: Caco-2. A general note: Caco-2 monolayers are a common model of the intestinal barrier.
In data set [7] the target is T1, P2Y purinoceptor 12. The source holds these as a separate data set.
Description: Displacement of [125I]-AZ11931285 from P2Y12 receptor (unknown origin) after 1 hr by scintillation counting analysis
Data set [8] can be described thus: Stability of the compound in MeCN assessed as compound remaining at room temperature. Format: physicochemical.
Data set [9] can be described thus: Clearance in iv dosed rat. The class given is ADME, organism-based. To be noted: in vivo.
The test system of data set [10] is Liver microsomes. The experiment in a line: Intrinsic clearance in rat liver microsomes at 1 umol/L by LC/MS analysis in presence of NADPH. The class given is ADME, Microsome. Particulars: 1 µM.
The nature of data set [11]: Half life in iv dosed rat. The class given is ADME, organism-based. To be noted: in vivo.
Data set [12] can be described thus: Oral bioavailability in rat. The class given is ADME, organism-based. To be noted: in vivo.
Data set [13] concerns Liver microsomes. The experiment in a line: Intrinsic clearance in human liver microsomes at 1 umol/L by LC/MS analysis in presence of NADPH. The class given is ADME, Microsome. To be noted: 1 µM.
Data set [14] in a line: Half life in po dosed rat. Format: ADME, organism-based. To be noted: in vivo.
Data set [15] can be described thus: Stability of the compound in MeCN at room temperature after 21 days by LC/MS analysis. Format: physicochemical. To be noted: 504 h.
Data set [16] is described as follows: Stability of the compound in EtOH at room temperature after 21 days by LC/MS analysis. The class given is physicochemical. Particulars: 504 h.
The nature of another data set: physchem. To be noted: HBSS buffer, pH 7.4.

One may read the pIC50 as −log10 of the IC50, conventionally taken in molar units. A higher pIC50 goes with a low IC50. For orientation: logD means lipophilicity at a set pH, counting ionised and neutral species. Broadly, the Papp A→B is the apparent permeability from the apical to the basolateral side of a cell layer. As usually defined, the clearance is the volume of plasma or blood freed of the substance per unit of time. By half-life is commonly meant the time needed for the level to fall by half in the phase considered. Low values mean rapid decline, high ones slow decline. For orientation: bioavailability means the share of a dose that reaches the circulation, judged against a reference dose that is usually intravenous. Broadly, the kinetic solubility is solubility judged after dilution from a stock solution rather than from solid.

T1 sequence (Q9H244 whole entry): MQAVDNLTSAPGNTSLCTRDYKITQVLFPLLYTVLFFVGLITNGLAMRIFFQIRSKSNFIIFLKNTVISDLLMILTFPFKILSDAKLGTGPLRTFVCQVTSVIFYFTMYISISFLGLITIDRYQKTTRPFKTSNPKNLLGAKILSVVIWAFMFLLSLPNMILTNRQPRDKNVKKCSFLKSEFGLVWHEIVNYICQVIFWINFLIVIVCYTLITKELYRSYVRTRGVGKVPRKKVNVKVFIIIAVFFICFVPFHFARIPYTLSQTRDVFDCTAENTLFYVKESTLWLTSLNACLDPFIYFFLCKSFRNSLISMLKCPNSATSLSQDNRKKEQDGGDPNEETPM
Description for physchem: Kinetic solubility in HBSS buffer at pH 7.4 after 16 hrs by LC-UV/MS analysis

On to `CCOC(=O)c1cc(C#N)c(N2CCN(C(=O)NS(=O)(=O)c3ccc(Cl)s3)CC2)nc1C(F)(F)F`, for which the remaining at 2922 h in data set [1] worked out at 10%. The pIC50 is 7.41 at P2Y purinoceptor 12 [2] and 7.10 at P2Y purinoceptor 12 [7]. The Stability entry (in the data set on Liver microsomes [3]; with Liver microsomes [5]; in [8]) was “Stable” in each case. The logD at 48 h in data set [4] stood at 1.1. The apparent permeability from apical to basolateral (Papp A→B) at up to 10 µM in data set [6] was 0.076 ×10⁻⁶ cm/s.
Turning to `CCOC(=O)c1cc(C#N)c(N2CCN(C(=O)NS(=O)(=O)c3ccc(C)cc3)CC2)nc1C(F)(F)F`, the clearance in data set [9] was found to be 89 mL/min/kg. Besides, in data set [1], the remaining at 2922 h came out at 52%. Further, the pIC50 is 7.05 at P2Y purinoceptor 12 [2] and 6.92 against P2Y purinoceptor 12 [7]. Further, the logD at 48 h in data set [4] was determined as 1.3. Further, the Intrinsic clearance in the data set with Liver microsomes [10] is greater than 104 µL/min/mg. Further, the half-life in [11] is 1.5 h; in data set [14], 0.65 h. The compound also came in with a bioavailability in data set [12] of 20%. The Intrinsic clearance (CLint) in the data set on Liver microsomes [13] was greater than 70 µL/min/mg. Besides, the Papp A→B at up to 10 µM in data set [6] stood at 0.22 ×10⁻⁶ cm/s. Moreover, in data set [8], the Stability entry is listed as “Stable”.
Consider `CCOC(=O)c1cnc(N2CCN(C(=O)NS(=O)(=O)c3ccc(C)cc3)CC2)c(Cl)c1`, for which the values for the Stability result in data set [15], in data set [16] and in [8] were “Stable”, “Unstable” and “Stable”, respectively. In addition, the negative-log IC50 (pIC50) at P2Y purinoceptor 12 [2] and against P2Y purinoceptor 12 [7] was 6.52 each time. Further, the Intrinsic clearance with Liver microsomes [10] is greater than 104 µL/min/mg. In the data set “physchem”, this compound had a solubility (kinetic) at 16 h of 490 µM (≈ 229 µg/mL). Also, in the data set with Liver microsomes [13], the Intrinsic clearance (CLint) is greater than 70 µL/min/mg. Also, the Papp A→B at up to 10 µM in [6] is 2.5 ×10⁻⁶ cm/s.
